Consider two compounds from patent US11873279B2, “Compositions for treatment of ocular diseases” (Perfuse Therapeutics, Inc., priority 2020, dated 2024).

A short description of data set [1]: Slurry conversion of crystalline forms, XRPD confirmation (thermodynamic stability). Type of data set: physicochemical. As to the method: For example, a disclosed crystalline form (e.g., Form 4), may be stored under practical and economical storage conditions, while retaining physical properties so that it may be manufactured into a dosage form. In another set of examples, a disclosed crystalline form (e.g., Form 1, Form 2, Form 3) are converted to disclosed crystalline form (e.g., Form 4). For example, heating a slurry of crystalline Form 1 in about 20 mL of a mixture of isopropanol and water (1:2) at 80° C. for 24 hours, and then cooling and filtering the sample obtained from the solution affords the crystalline Form 4. In another example, stirring the amorphous form of a compound of Formula I in 20 mL of water at 25° C. for 15 hours affords crystalline Form 2, and then subsequently heating crystalline Form 2 at 100° C. for 40 hours followed by filtration affords the crystalline Form 4. In yet another example, heating a slurry of the anhydrous crystalline Form 3 in 30 mL of water at 80° C. for 40 hours and then cooling and filtering the sample obtained from the solution affords the crystalline Form 4. […] In an embodiment, a disclosed crystalline form may have improved chemical and/or physical stability when e.g., compounded in a pharmaceutical formulation, as compared to e.g., the amorphous form. In some embodiments, the crystalline form is crystalline Form 4.
In an alternate method, 150 mg of Edonentan (Form 3) was added to a mixture of isopropanol and water (1 mL and 2 mL, respectively). The resulting slurry was stirred at 15° C. for 48 hours and then filtered.
In an alternate method, 200 mg of Edonentan (Form 1) was added to a mixture of isopropanol and water (1.3 mL and 2.6 mL, respectively). The resulting solution was heated to 80° C. and stirred for 24 h, then cooled and filtered.

Data set [2] deals with laser-induced NHP glaucoma model. In words: Laser-induced NHP glaucoma model, optic nerve head blood flow. The class given is in vivo, non-human primate (NHP). The following applies: dose-dependent. An excerpt: Other examples of relevant animal glaucoma models are Morrison's rat model of chronically elevated IOP and the laser-induced non-human primate (NHP) glaucoma model. Glaucoma in Morrison's rat model is induced by sustained elevation of IOP through hypertonic saline administration via episcleral veins. […] Efficacy in the above-described glaucoma models is defined as reduction in IOP, improvement in optic nerve head or retinal blood flow from baseline, prevention or slowing of the progression of structural neurodegenerative changes such as retinal nerve fiber layer thickness as measured by optical coherence tomography (OCT) or retinal ganglion cell counts on flat mount as well as functional changes such as electroretinography (ERG) or contrast sensitivity after treatment with a composition containing Edonentan crystalline forms.

Take `Cc1onc(NS(=O)(=O)c2ccccc2-c2ccc(-c3ncco3)cc2CN(C)C(=O)CC(C)(C)C)c1C` [Form 4, N-[[2′-[[(4,5-dimethyl-3-isoxazolyl)amino]sulfonyl]-4-(2-oxazolyl)[1,1′-biphenyl]-2-yl]methyl]-N,3,3-trimethylbutanamide]: the “Thermodynamic stability relative to Form 1” value in data set [1] (Form 1 in isopropanol/water (1.3 mL/2.6 mL), 80° C., 24 h, converted to Form 4 by XRPD) is “more thermodynamically stable than Form 1”. The “Thermodynamic stability relative to Form 3” value in data set [1] (Form 3 slurry in isopropanol/water (1 mL/2 mL), 15° C., 48 hours, converted to Form 4 by XRPD) is reported as “more thermodynamically stable than Form 3”. Also, the “Thermodynamic stability compared to the other crystalline forms” value in data set [1] (summary statement of Example 6) was “higher thermodynamic stability compared to Form 1, Form 2 and Form 3”.

For `Cc1onc(NS(=O)(=O)c2ccccc2-c2ccc(-c3ncco3)cc2CN(C)C(=O)CC(C)(C)C)c1C` [Edonentan, N-[[2′-[[(4,5-dimethyl-3-isoxazolyl)amino]sulfonyl]-4-(2-oxazolyl)[1,1′-biphenyl]-2-yl]methyl]-N,3,3-trimethylbutanamide], the “Optic nerve head blood flow” value in data set [2] is reported as “improve optic nerve head blood flow in a dose-dependent manner”.
